From BindingDB's records for doi:10.1111/cbdd.12105 (Umdnj-New Jersey Medical School, 2013)

What follows are compounds tested against Genome polyprotein (Hepatitis C virus genotype 1b (isolate BK), UniProt P26663) (assay: NS5B Inhibition Assay). Conditions: pH 7; 30 °C.
Source text: Inhibition assay using HCV NS5B.

Genome polyprotein, sequence (P26663 2420-3010 limits assumed): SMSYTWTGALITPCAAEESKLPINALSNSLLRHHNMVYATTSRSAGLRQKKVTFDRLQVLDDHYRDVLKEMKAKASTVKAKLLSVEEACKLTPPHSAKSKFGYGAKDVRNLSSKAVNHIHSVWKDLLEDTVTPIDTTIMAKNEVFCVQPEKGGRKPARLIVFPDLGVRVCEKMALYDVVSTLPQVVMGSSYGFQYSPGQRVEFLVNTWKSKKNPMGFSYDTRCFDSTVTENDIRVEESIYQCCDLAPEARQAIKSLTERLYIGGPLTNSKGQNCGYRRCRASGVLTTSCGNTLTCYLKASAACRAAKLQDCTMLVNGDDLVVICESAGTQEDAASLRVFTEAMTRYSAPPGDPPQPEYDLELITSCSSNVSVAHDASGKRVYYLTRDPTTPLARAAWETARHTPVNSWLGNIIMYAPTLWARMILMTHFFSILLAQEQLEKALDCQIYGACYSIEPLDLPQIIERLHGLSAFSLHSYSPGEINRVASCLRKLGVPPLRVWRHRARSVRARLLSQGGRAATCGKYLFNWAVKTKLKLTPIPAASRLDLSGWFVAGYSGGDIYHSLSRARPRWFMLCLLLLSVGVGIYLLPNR

SMILES	IC50 [µM]
O=c1cc(-c2ccccc2)c2ccc(O)cc2o1 [7-Hydroxy-4-phenyl-chromen-2-one]	41.6
Cc1cc(=O)oc2cc(O)cc(O)c12 [Coumarin derivative, 1b]	47.2
C=CCc1c(O)c(CC=C)c2oc(=O)ccc2c1O [Neoflavonoid derivative, 8a]	17.9
C=CCc1c(O)c(CC=C)c2oc(=O)cc(-c3ccccc3)c2c1O [Neoflavonoid derivative, 8c]	45.8
COc1cc2c(cc1O)oc(=O)c1c3cc(O)c(O)cc3oc21 [LQB-34]	18
C=CCOc1cc(OCC=C)c2c(-c3ccccc3)cc(=O)oc2c1 [Neoflavonoid derivative, 6c]	30.3
O=c1cc(-c2ccccc2)c2c(O)cc(O)cc2o1	27

More lines, now with the values ahead:

IC50 [µM]	SMILES
38.4	C=CCOc1cc(OCC=C)c2c(C)cc(=O)oc2c1 [Neoflavonoid derivative, 6b]
33.8	Cc1cc(=O)oc2cc(O)ccc12 [4-Methyl-7-hydroxycoumarin]
63	COc1cc(OC)c2c(-c3ccccc3)cc(=O)oc2c1 [5,7-dimethoxy-4-phenyl-chromen-2-one]
39.7	O=c1ccc2c(O)cc(O)cc2o1 [Coumarin derivative, 1a]
54.1	COc1cc(OC)c2c(C)cc(=O)oc2c1 [Coumarin derivative, 2b]
58	COc1cc(OC)c2ccc(=O)oc2c1 [Coumarin derivative, 2a]
36.6	O=c1ccc2ccc(O)cc2o1 [umbelliferone]
26.2	C=CCOc1cc(OCC=C)c2ccc(=O)oc2c1 [Neoflavonoid derivative, 6a]
